Test results published in US12421243B2, “Pharmaceutically effective compounds inhibiting selectively the myosin 2 isoforms” (PRINTNET KERESKEDELMI ÉS SZOLGÁLTATÓ KFT., priority 2018, dated 2025).

Columns and labels:
[1] = molecular target: recombinant Dictyostelium miozin (Dictyostelium) (Dictyostelium discoideum, UniProt P08799); experiment: actomyosin steady state ATPase measurement, Dictyostelium myosin; format: biochemical; details: for inhibition at 50 µM: read-out: % inhibition at 50 μM (or 100 μM if racemate) Dicty; for IC50: concentration required for semi-maximal inhibition of ATPase, read-out: IC50 (μM) Dicty; for % inhibition. complete Dicty: maximum value of inhibition of ATPase activity; for inhibition at 5 µM: read-out: % inhibition at 5 μM (or 10 μM if racemate) Dicty
Chain of recombinant Dictyostelium miozin (Dictyostelium) (P08799 whole entry): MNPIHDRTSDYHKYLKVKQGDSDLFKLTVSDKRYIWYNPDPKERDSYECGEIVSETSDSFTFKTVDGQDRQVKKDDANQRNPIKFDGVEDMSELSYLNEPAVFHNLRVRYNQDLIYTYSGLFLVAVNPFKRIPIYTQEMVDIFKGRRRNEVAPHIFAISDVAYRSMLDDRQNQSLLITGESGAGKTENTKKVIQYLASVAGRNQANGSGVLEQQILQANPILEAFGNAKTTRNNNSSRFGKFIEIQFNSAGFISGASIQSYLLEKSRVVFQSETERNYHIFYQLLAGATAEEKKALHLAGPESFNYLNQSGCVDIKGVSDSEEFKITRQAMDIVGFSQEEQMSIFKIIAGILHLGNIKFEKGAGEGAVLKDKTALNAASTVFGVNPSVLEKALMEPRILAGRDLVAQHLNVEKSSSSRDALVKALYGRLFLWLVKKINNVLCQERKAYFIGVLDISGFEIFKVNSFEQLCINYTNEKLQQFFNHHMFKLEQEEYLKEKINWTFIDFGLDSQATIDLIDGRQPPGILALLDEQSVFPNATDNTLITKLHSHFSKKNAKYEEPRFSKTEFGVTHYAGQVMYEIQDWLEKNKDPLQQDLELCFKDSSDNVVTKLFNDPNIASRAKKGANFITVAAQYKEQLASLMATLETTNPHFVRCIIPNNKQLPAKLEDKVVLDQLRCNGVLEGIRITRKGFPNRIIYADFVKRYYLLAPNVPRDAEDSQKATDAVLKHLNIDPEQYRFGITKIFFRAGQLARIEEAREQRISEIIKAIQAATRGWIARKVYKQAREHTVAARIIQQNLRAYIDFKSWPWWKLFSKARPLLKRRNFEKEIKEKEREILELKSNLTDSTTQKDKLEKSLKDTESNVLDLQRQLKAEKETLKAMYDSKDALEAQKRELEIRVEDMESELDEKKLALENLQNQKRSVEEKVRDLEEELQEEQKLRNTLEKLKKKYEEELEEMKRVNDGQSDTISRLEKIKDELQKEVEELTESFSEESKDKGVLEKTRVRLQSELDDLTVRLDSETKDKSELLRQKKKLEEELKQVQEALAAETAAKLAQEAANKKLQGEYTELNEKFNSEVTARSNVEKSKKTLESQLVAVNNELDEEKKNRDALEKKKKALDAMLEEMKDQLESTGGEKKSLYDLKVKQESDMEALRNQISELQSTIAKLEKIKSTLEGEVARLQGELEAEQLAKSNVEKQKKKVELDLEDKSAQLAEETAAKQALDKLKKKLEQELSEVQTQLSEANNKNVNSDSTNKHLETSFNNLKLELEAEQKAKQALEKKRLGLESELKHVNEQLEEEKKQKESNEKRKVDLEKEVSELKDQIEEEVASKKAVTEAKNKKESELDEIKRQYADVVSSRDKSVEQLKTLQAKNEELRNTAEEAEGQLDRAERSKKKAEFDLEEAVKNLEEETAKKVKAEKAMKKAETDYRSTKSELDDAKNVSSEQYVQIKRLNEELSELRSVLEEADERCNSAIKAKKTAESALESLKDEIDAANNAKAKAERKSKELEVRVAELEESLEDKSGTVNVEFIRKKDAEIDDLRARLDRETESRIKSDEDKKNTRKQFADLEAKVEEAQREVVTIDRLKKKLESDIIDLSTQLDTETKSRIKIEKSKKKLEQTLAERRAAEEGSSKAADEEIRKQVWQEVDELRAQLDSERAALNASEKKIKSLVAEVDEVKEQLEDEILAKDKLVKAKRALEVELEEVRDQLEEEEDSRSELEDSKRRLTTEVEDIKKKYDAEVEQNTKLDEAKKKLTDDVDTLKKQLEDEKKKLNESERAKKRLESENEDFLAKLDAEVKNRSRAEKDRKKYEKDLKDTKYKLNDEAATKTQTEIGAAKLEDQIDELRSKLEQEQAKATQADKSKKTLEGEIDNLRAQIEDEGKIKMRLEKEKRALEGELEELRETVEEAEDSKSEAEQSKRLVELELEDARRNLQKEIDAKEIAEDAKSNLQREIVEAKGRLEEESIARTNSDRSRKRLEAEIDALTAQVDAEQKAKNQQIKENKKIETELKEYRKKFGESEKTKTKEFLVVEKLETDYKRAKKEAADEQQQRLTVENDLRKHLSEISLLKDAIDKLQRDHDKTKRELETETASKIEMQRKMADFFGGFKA
Text: (§1) […]; (ii) the concentration required for semi-maximal inhibition.

[2] = molecular target: recombinant human non-muscle myosin 2 NM2A (Homo sapiens, UniProt P35579); experiment: actomyosin steady state ATPase measurement, NM2A; format: biochemical; details: for inhibition at 50 µM: read-out: % inhibition at 50 μM (or 100 μM if racemate) NM2A, 50 μM (100 μM if racemate); for inhibition at 50 µM / inhibition at 5 µM: ATPase activity; for IC50: concentration required for semi-maximal inhibition of ATPase; for % inhibition. complete NM2A: maximum value of inhibition of ATPase activity; for inhibition at 5 µM: read-out: % inhibition at 5 μM (or 10 μM if racemate) NM2A, 5 μM (10 μM if racemate)
Text: as §1

[3] = molecular target: recombinant human non-muscle myosin 2 NM2B (Homo sapiens, UniProt P35580); experiment: actomyosin steady state ATPase measurement, NM2B; format: biochemical; details: for inhibition at 50 µM: read-out: % inhibition at 50 μM (or 100 μM if racemate) NM2B, 50 μM (100 μM if racemate)
Text: as §1

[4] = molecular target: recombinant human non-muscle myosin 2 NM2C (Homo sapiens, UniProt Q7Z406); experiment: actomyosin steady state ATPase measurement, NM2C; format: biochemical; details: for inhibition at 50 µM: read-out: % inhibition at 50 μM (or 100 μM if racemate) NM2C, 50 μM (100 μM if racemate); for inhibition at 50 µM / inhibition at 5 µM: ATPase activity; for IC50: concentration required for semi-maximal inhibition of ATPase; for % inhibition. complete NM2C: maximum value of inhibition of ATPase activity; for inhibition at 5 µM: read-out: % inhibition at 5 μM (or 10 μM if racemate) NM2C, 5 μM (10 μM if racemate); for Inhibition (%) NM2C: maximum inhibition, compounds in IC50 range 1-5 μM
Text: as §1

[5] = molecular target: T1, isolated porcine cardiac ventricular myocardium (cardiac) (Sus scrofa, UniProt P79293); experiment: actomyosin steady state ATPase measurement, cardiac myosin; format: biochemical; details: for inhibition at 50 µM: read-out: % inhibition at 50 μM (or 100 μM if racemate) cardiac, 50 μM (100 μM if racemate); for inhibition at 50 µM / inhibition at 5 µM: ATPase activity; for IC50: concentration required for semi-maximal inhibition of ATPase; for % inhibition. complete cardiac: maximum value of inhibition of ATPase activity; for inhibition at 5 µM: read-out: % inhibition at 5 μM (or 10 μM if racemate) cardiac, 5 μM (10 μM if racemate)
T1 construct: isolated porcine cardiac ventricular myocardium (cardiac); from tissue; host or cells: porcine cardiac ventricle
Text: as §1

[6] = system: isolated rabbit skeletal muscle myosin (skeletal); experiment: actomyosin steady state ATPase measurement, skeletal muscle myosin; format: biochemical; details: for % inhibition at 50 μM (or 100 μM if racemate) Skeletal: 50 μM (100 μM if racemate); for % inhibition at 50 μM (or 100 μM if racemate) Skeletal / % inhibition at 5 μM (or 10 μM if racemate) Skeletal: ATPase activity; for % inhibition at 5 μM (or 10 μM if racemate) Skeletal: 5 μM (10 μM if racemate); for IC50: concentration required for semi-maximal inhibition of ATPase; for % inhibition. complete Skeletal: maximum value of inhibition of ATPase activity; for Inhibition (%) skeletal: maximum inhibition, compounds in IC50 range 1-2 μM
Text: as §1

[7] = molecular target: isolated smooth muscle myosin (UniProt P10587); format: biochemical, chamois; details: for % inhibition at 50 μM (or 100 μM if racemate) Smooth: 50 μM (100 μM if racemate); for % inhibition at 50 μM (or 100 μM if racemate) Smooth / % inhibition at 5 μM (or 10 μM if racemate) Smooth: ATPase activity; for % inhibition at 5 μM (or 10 μM if racemate) Smooth: 5 μM (10 μM if racemate); for % inhibition. complete Smooth: maximum value of inhibition of ATPase activity
Chain of isolated smooth muscle myosin (P10587 whole entry): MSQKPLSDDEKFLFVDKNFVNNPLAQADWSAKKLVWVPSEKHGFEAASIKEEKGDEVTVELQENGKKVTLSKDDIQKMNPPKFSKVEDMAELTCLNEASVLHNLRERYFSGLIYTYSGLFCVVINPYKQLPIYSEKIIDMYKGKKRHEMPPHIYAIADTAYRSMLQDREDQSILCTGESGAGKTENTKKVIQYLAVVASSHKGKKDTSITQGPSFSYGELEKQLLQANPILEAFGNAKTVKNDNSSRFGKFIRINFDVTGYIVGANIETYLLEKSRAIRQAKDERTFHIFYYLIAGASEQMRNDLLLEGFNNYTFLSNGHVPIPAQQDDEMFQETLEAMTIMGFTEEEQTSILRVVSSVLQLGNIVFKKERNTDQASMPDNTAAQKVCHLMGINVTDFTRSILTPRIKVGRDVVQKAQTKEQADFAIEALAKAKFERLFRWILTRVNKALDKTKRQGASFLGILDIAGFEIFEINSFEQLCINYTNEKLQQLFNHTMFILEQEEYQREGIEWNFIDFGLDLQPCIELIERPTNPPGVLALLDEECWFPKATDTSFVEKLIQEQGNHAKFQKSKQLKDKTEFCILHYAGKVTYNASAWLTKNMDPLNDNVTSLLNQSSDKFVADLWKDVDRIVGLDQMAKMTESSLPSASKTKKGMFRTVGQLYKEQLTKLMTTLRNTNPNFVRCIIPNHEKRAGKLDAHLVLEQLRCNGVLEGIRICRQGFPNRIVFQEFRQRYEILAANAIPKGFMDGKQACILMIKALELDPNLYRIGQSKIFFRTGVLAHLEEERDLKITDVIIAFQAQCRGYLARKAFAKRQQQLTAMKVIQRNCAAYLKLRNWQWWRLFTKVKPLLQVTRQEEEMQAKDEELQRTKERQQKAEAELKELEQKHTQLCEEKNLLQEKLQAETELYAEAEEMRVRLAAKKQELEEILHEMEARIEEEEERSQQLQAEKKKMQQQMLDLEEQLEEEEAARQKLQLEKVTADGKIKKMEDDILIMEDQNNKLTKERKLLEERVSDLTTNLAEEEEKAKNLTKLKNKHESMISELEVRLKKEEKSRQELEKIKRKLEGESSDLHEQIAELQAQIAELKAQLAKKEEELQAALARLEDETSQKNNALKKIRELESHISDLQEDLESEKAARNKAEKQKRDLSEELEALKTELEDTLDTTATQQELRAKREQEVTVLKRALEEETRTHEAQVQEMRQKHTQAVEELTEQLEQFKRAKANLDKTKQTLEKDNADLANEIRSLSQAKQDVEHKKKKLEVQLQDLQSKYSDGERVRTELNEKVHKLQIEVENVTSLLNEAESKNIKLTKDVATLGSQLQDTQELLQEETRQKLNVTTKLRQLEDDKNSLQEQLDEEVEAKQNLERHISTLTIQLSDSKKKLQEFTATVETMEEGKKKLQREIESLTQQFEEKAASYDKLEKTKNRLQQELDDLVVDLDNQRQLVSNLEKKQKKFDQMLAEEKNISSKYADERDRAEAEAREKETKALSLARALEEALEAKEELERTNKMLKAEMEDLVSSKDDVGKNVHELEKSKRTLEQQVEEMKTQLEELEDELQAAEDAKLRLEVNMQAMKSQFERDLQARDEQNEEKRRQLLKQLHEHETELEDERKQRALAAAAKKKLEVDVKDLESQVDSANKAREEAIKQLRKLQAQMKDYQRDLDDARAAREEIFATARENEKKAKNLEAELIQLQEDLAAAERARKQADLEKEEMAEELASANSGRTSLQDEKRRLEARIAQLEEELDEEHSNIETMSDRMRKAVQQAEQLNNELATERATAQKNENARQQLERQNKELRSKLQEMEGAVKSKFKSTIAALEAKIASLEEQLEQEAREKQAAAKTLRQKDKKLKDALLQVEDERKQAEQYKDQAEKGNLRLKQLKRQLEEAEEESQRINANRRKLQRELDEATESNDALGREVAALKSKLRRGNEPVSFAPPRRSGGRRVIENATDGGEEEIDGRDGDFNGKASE

[8] = molecular target: isolated smooth muscle myosin (UniProt P10587); format: biochemical, chamois; details: concentration required for semi-maximal inhibition of ATPase
Text: (ii) the concentration required for semi-maximal inhibition.

## O=C1c2ncccc2N=C2N(c3ccccc3)CCC12O (stereo not drawn) [Compound 190, 8a-Hydroxy-6-phenyl-6H,7H,8H,8aH,9H-pyrrolo[2,3-b]1,5-naphthyridin-9-one]
[1]
  inhibition at 50 µM: 44%
[2]
  inhibition at 50 µM: 15%
[3]; ATPase activity
  inhibition at 50 µM: 24%
[4]
  inhibition at 50 µM: 41%
[5]
  inhibition at 50 µM: 43%
[6]
  % inhibition at 50 μM (or 100 μM if racemate) Skeletal: 86%
[7]
  % inhibition at 50 μM (or 100 μM if racemate) Smooth: 34%

## Cc1cc2c(s1)N=C1N(c3cccs3)CC[C@@]1(O)C2=O [Compound 208, (9S)-9-Hydroxy-5-methyl-12-(thiophen-2-yl)-4-thia-2,12-diazatricyclo[7.3.0.0^3,7]dodeca-1,3(7),5-trien-8-one]
[1]
  IC50: 3.6 µM
  % inhibition. complete Dicty: 95%
  inhibition at 5 µM: 55%
  inhibition at 50 µM: 89%
[1]; maximum inhibition, compounds in IC50 range 1-11 μM
  Inhibition (%) Dicty: 95%
[2]
  IC50: 7.2 µM
  % inhibition. complete NM2A: 89%
  inhibition at 5 µM: 37%
  inhibition at 50 µM: 78%
[2]; maximum inhibition, compounds in IC50 range 5-10 μM
  Inhibition (%) NM2A: 89%
[4]
  IC50: 1.7 µM
  % inhibition. complete NM2C: 69%
  inhibition at 5 µM: 54%
  inhibition at 50 µM: 65%
[6]
  % inhibition at 5 μM (or 10 μM if racemate) Skeletal: 87%
  % inhibition at 50 μM (or 100 μM if racemate) Skeletal: 93%
  IC50: 0.36 µM
  % inhibition. complete Skeletal: 95%
[8]
  IC50: 7.8 µM
[7]
  % inhibition at 5 μM (or 10 μM if racemate) Smooth: 26%
  % inhibition at 50 μM (or 100 μM if racemate) Smooth: 60%
  % inhibition. complete Smooth: 66%

## O=C1c2sccc2N=C2N(c3ccccc3)CCC12O (stereo not drawn) [Compound 183, 7-Hydroxy-4-phenyl-10-thia-2,4-diazatricyclo[7.3.0.0^3,7]dodeca-1(9),2,11-trien-8-one]
[1]
  IC50: 5 µM
  % inhibition. complete Dicty: 100%
  inhibition at 5 µM: 26%
  inhibition at 50 µM: 80%
[2]
  IC50: 87 µM
  % inhibition. complete NM2A: 100%
  inhibition at 5 µM: 4%
  inhibition at 50 µM: 37%
[3]; concentration required for semi-maximal inhibition of ATPase
  IC50: 12 µM
[3]; maximum value of inhibition of ATPase activity
  % inhibition. complete NM2B: 56%
[3]; read-out: % inhibition at 5 μM (or 10 μM if racemate) NM2B, 5 μM (10 μM if racemate), ATPase activity
  inhibition at 5 µM: 16%
[3]; ATPase activity
  inhibition at 50 µM: 45%
[4]
  IC50: 60 µM
  % inhibition. complete NM2C: 83%
  inhibition at 5 µM: 6%
  inhibition at 50 µM: 37%
[5]
  IC50: 8 µM
  % inhibition. complete cardiac: 84%
  inhibition at 5 µM: 33%
  inhibition at 50 µM: 73%
[6]
  % inhibition at 5 μM (or 10 μM if racemate) Skeletal: 80%
  % inhibition at 50 μM (or 100 μM if racemate) Skeletal: 93%
  IC50: 1 µM
  % inhibition. complete Skeletal: 95%
[8]
  IC50: 15 µM
[7]
  % inhibition at 5 μM (or 10 μM if racemate) Smooth: 17%
  % inhibition at 50 μM (or 100 μM if racemate) Smooth: 51%
  % inhibition. complete Smooth: 66%

## Cc1nsc2c1C(=O)C1(O)CCN(c3ccccc3)C1=N2 (stereo not drawn) [Compound 206, 12-phenyl-9-Hydroxy-6-methyl-4-thia-2,5,12-triazatricyclo[7.3.0.0^3,7]dodeca-1,3(7),5-trien-8-one]
[2]
  inhibition at 5 µM: 9%
[5]
  IC50: 10 µM
  % inhibition. complete cardiac: 47%
  inhibition at 5 µM: 16%
  inhibition at 50 µM: 39%
[6]
  % inhibition at 5 μM (or 10 μM if racemate) Skeletal: 26%
  % inhibition at 50 μM (or 100 μM if racemate) Skeletal: 78%
  IC50: 14 µM
  % inhibition. complete Skeletal: 100%
[8]
  IC50: 9 µM
[7]
  % inhibition at 5 μM (or 10 μM if racemate) Smooth: 9%
  % inhibition at 50 μM (or 100 μM if racemate) Smooth: 21%
  % inhibition. complete Smooth: 24%

## COc1ccc(N2CC[C@@]3(O)C(=O)c4ccsc4N=C23)cn1 [Compound 219, (9S)-9-Hydroxy-12-(6-methoxypyridin-3-yl)-4-thia-2,12-diazatricyclo[7.3.0.0^3,7]dodeca-1,3(7),5-trien-8-one]
[1]
  IC50: 43 µM
  % inhibition. complete Dicty: 100%
  inhibition at 5 µM: 6%
  inhibition at 50 µM: 56%
[4]
  IC50: 8.1 µM
  % inhibition. complete NM2C: 21%
  inhibition at 5 µM: 8%
  inhibition at 50 µM: 18%
[5]
  IC50: 4.1 µM
  % inhibition. complete cardiac: 84%
  inhibition at 5 µM: 44%
  inhibition at 50 µM: 78%
[5]; maximum inhibition, compounds in IC50 range 3-6 μM
  Inhibition (%) cardiac: 84%
[6]
  % inhibition at 5 μM (or 10 μM if racemate) Skeletal: 69%
  % inhibition at 50 μM (or 100 μM if racemate) Skeletal: 91%
  IC50: 1.8 µM
  Inhibition (%) skeletal: 94%
  % inhibition. complete Skeletal: 94%
[8]
  IC50: 6.9 µM
[7]
  % inhibition at 5 μM (or 10 μM if racemate) Smooth: 15%
  % inhibition at 50 μM (or 100 μM if racemate) Smooth: 32%
  % inhibition. complete Smooth: 36%

## Cc1cc2c(s1)N=C1N(c3ccc(C#N)cc3)CCC1(O)C2=O (stereo not drawn) [Compound 224, 4-{9-Hydroxy-5-methyl-8-oxo-4-thia-2,12-diazatricyclo[7.3.0.0^3,7]dodeca-1,3(7),5-trien-12-yl}benzonitrile]
[1]
  IC50: 2.8 µM
  % inhibition. complete Dicty: 89%
  inhibition at 5 µM: 64%
  inhibition at 50 µM: 86%
[4]
  IC50: 1.2 µM
  % inhibition. complete NM2C: 93%
  inhibition at 5 µM: 72%
  inhibition at 50 µM: 91%
[5]
  IC50: 1.7 µM
  % inhibition. complete cardiac: 99%
  inhibition at 5 µM: 72%
  inhibition at 50 µM: 96%
[6]
  % inhibition at 5 μM (or 10 μM if racemate) Skeletal: 94%
  % inhibition at 50 μM (or 100 μM if racemate) Skeletal: 98%
  IC50: 0.21 µM
  % inhibition. complete Skeletal: 98%
[8]
  IC50: 1.7 µM
[7]
  % inhibition at 5 μM (or 10 μM if racemate) Smooth: 72%
  % inhibition at 50 μM (or 100 μM if racemate) Smooth: 96%
  % inhibition. complete Smooth: 99%

## Cc1cc2c(s1)N=C1N(c3ccc(N)cc3)CCC1(O)C2=O (stereo not drawn) [Compound 221, 12-(4-Aminophenyl)-9-hydroxy-5-methyl-4-thia-2,12-diazatricyclo[7.3.0.0^3,7]dodeca-1,3(7),5-trien-8-one]
[1]
  IC50: 11.6 µM
  % inhibition. complete Dicty: 100%
  inhibition at 5 µM: 27%
  inhibition at 50 µM: 85%
[4]
  IC50: 4.1 µM
  Inhibition (%) NM2C: 61%
  % inhibition. complete NM2C: 61%
  inhibition at 5 µM: 32%
  inhibition at 50 µM: 56%
[5]
  IC50: 0.9 µM
  % inhibition. complete cardiac: 79%
  inhibition at 5 µM: 65%
  inhibition at 50 µM: 78%
[6]
  % inhibition at 5 μM (or 10 μM if racemate) Skeletal: 65%
  % inhibition at 50 μM (or 100 μM if racemate) Skeletal: 91%
  IC50: 1.8 µM
  Inhibition (%) skeletal: 92%
  % inhibition. complete Skeletal: 92%
[8]
  IC50: 6 µM
[7]
  % inhibition at 5 μM (or 10 μM if racemate) Smooth: 43%
  % inhibition at 50 μM (or 100 μM if racemate) Smooth: 87%
  % inhibition. complete Smooth: 97%

## COc1ccc(N2CCC3(O)C(=O)c4cc(C)sc4N=C23)cn1 (stereo not drawn) [Compound 230, 9-Hydroxy-12-(6-methoxypyridin-3-yl)-5-methyl-4-thia-2,12-diazatricyclo[7.3.0.0^3,7]dodeca-1,3(7),5-trien-8-one]
[1]
  IC50: 8.1 µM
  % inhibition. complete Dicty: 100%
  inhibition at 5 µM: 36%
  inhibition at 50 µM: 90%
[4]
  IC50: 2.3 µM
  Inhibition (%) NM2C: 93%
  % inhibition. complete NM2C: 93%
  inhibition at 5 µM: 61%
  inhibition at 50 µM: 89%
[5]
  IC50: 1.9 µM
  % inhibition. complete cardiac: 96%
  inhibition at 5 µM: 68%
  inhibition at 50 µM: 93%
[6]
  % inhibition at 5 μM (or 10 μM if racemate) Skeletal: 85%
  % inhibition at 50 μM (or 100 μM if racemate) Skeletal: 92%
  IC50: 0.43 µM
  % inhibition. complete Skeletal: 93%
[8]
  IC50: 3.6 µM
[7]
  % inhibition at 5 μM (or 10 μM if racemate) Smooth: 56%
  % inhibition at 50 μM (or 100 μM if racemate) Smooth: 96%
  % inhibition. complete Smooth: 100%
[7]; maximum inhibition, compounds in IC50 range 1-5 μM
  Inhibition (%) smooth: 100%
